Test results as given in patent US20240215577A1, “FUNGICIDAL PYRIDONES” (FMC Corporation, priority 2021, published 2024).

Experiments:
Type in all cases: in vivo
Conditions in all cases: 100 = 100% disease control, 0 = no control
[1] = system: Puccinia recondita f. sp. tritici; experiment: Test B: wheat leaf rust, preventive spray on wheat seedlings
Source text: (§1) General protocol for preparing test suspensions for Tests A-F: the test compounds were first dissolved in acetone in an amount equal to 3% of the final volume and then suspended at the desired concentration (in ppm) in acetone and purified water (50/50 mix by volume) containing 250 ppm of the surfactant PEG400 (polyhydric alcohol esters). The resulting test suspensions were then used in Tests A-F.
(§2) The test solution was sprayed to the point of run-off on wheat seedlings. The following day the seedlings were inoculated with a spore suspension of Puccinia recondita f. sp. tritici (the causal agent of wheat leaf rust) and incubated in a saturated atmosphere at 20° C. for 24 h, and then moved to a growth chamber at 20° C. for 7 days, after which time visual disease ratings were made.
(§3) A rating of 100 indicates 100% disease control and a rating of 0 indicates no disease control (relative to the controls). A dash (-) indicates the compound was not tested.

[2] = system: Alternaria solani; experiment: Test F: tomato early blight, preventive spray on tomato seedlings
Source text: as §1
(§4) The test suspension was sprayed to the point of run-off on tomato seedlings. The following day the seedlings were inoculated with a spore suspension of Alternaria solani (the causal agent of tomato early blight) and incubated in a saturated atmosphere at 27° C. for 48 h, and then moved to a growth chamber at 20° C. for 3 days, after which time visual disease ratings were made.
as §3

[3] = system: Botrytis cinerea; experiment: Test E: tomato Botrytis, preventive spray on tomato seedlings
Source text: as §1
as §4, with “Botrytis cinerea” for “Alternaria solani”, “Botrytis)” for “early blight)”, “20°” for “27°”, “24°” for “20°”
as §3

[4] = system: Zymoseptoria tritici; experiment: Test A: wheat leaf blotch, preventive spray on wheat seedlings
Source text: as §1
The test solution was sprayed to the point of run-off on wheat seedlings. The following day the seedlings were inoculated with a spore suspension of Zymoseptoria tritici (the causal agent of wheat leaf blotch) and incubated in a saturated atmosphere at 24° C. for 48 h, and then moved to a growth chamber at 20° C. for 17 days, after which time disease ratings were made.
as §3

[5] = system: Phakopsora pachyrhizi; experiment: Test D: Asian soybean rust, preventive spray on soybean seedlings
Source text: as §1
as §2, with “soybean” for “wheat”, “Phakopsora pachyrhizi” for “Puccinia recondita f. sp. tritici”, “Asian soybean” for “wheat leaf”, “22°” for “20°”, “h” for “h,”, “8” for “7”
as §3

[6] = system: Blumeria graminis f. sp. tritici; experiment: Test C: wheat powdery mildew, preventive spray on wheat seedlings
Source text: as §1
The test suspension was sprayed to the point of run-off on wheat seedlings. The following day the seedlings were inoculated with a spore dust of Blumeria graminis f. sp. tritici, (also known as Eysiphe graminis f. sp. tritici, the causal agent of wheat powdery mildew) and incubated in a growth chamber at 20° C. for 8 days, after which time visual disease ratings were made.
as §3

[7] = Puccinia recondita, 50 ppm, read-out: Test B disease control rating
[8] = Alternaria solani, 50 ppm, read-out: Test F disease control rating
[9] = Botrytis cinerea, 50 ppm, read-out: Test E disease control rating
[10] = Zymoseptoria tritici, 50 ppm, read-out: Test A disease control rating
[11] = Phakopsora pachyrhizi, 216 h, 50 ppm, read-out: Test D disease control rating
[12] = Blumeria graminis, 50 ppm, read-out: Test C disease control rating

Structure (SMILES)	Test B disease control rating ([1]; 50 ppm) [%]	Test F disease control rating ([2]; 50 ppm) [%]	Test E disease control rating ([3]; 50 ppm) [%]	Test A disease control rating ([4]; 50 ppm) [%]	Test D disease control rating ([5]; 50 ppm) [%]	Test C disease control rating ([6]; 50 ppm) [%]	also measured
COc1cc(OC)c(Cl)c(-c2cn(OCC#N)c(=O)c(Cl)c2-c2ccc(F)cc2Cl)c1 [Compound 35]	100	0	94	84	92	73	
COc1ccc(-c2cc(=O)n(C)cc2-c2cc(OC)ccc2Cl)c(Cl)c1 [Compound 68]	98	73	88	61	0	0	
COc1ccc(F)c(-c2cn(C)c(=O)c(Cl)c2-c2ccc(F)cc2F)c1 [Compound 49]	100	100	96	100	73	0	
Cn1cc(-c2cc(F)ccc2F)c(-c2ccc(F)cc2Cl)c(Cl)c1=O [Compound 24]	96	0	85	96	0	0	
COc1cc(OC)c(Cl)c(-c2cn(C)c(=O)c(Cl)c2-c2ccc(F)cc2Cl)c1 [Compound 4, 3-chloro-5-(2-chloro-3,5-dimethoxyphenyl)-4-(2-chloro-4-fluorophenyl)-1-methyl-2(1H)-pyridinone]							pest or weed control at 50 ppm [1, 7]: 100%; pest or weed control at 50 ppm [2, 8]: 100%; pest or weed control at 50 ppm [3, 9]: 100%; pest or weed control at 50 ppm [4, 10]: 100%; pest or weed control at 50 ppm [5, 11]: 99%; pest or weed control at 50 ppm [6, 12]: 98%
COc1cc(OC)cc(-c2cn(C)c(=O)c(Cl)c2-c2ccc(F)cc2F)c1 [Compound 25]	100	99	82	100	84	0	
COc1ccc(F)c(-c2cn(C)c(=O)c(Cl)c2-c2ccc(F)cc2Cl)c1 [Compound 28]	100	99	98	100	87	97	
COc1cc(OC)c(Cl)c(-c2cn(OC)c(=O)c(Cl)c2-c2ccc(F)cc2Cl)c1 [Compound 22, 3-chloro-4-(2-chloro-4-fluorophenyl)-5-(2-chloro-3,5-dimethoxyphenyl)-1-methoxy-2(1H)-pyridinone]							pest or weed control at 50 ppm [1, 7]: 100%; pest or weed control at 50 ppm [2, 8]: 99%; pest or weed control at 50 ppm [3, 9]: 98%; pest or weed control at 50 ppm [4, 10]: 99%; pest or weed control at 50 ppm [5, 11]: 97%; pest or weed control at 50 ppm [6, 12]: 76%
COc1ccc(-c2c(-c3cc(OC)ccc3Cl)cn(C)c(=O)c2Cl)c(Cl)c1 [Compound 69]	100	100	98	100	79	99	
CCc1c(-c2ccc(F)cc2Cl)c(-c2cc(OC)ccc2Cl)cn(C)c1=O [Compound 47]	100	99	91	81	51	99	
COc1cc(OC)cc(-c2cn(C)c(=O)cc2-c2ccc(F)cc2Cl)c1 [Compound 53, 4-(2-chloro-4-fluorophenyl)-5-(3,5-dimethoxyphenyl)-1-methyl-2(1H)-pyridinone]							pest or weed control at 250 ppm ([1]; Puccinia recondita, 250 ppm, read-out: Test B disease control rating): 97%; pest or weed control at 250 ppm ([2]; Alternaria solani, 250 ppm, read-out: Test F disease control rating): 0%; pest or weed control at 250 ppm ([3]; Botrytis cinerea, 250 ppm, read-out: Test E disease control rating): 99%; pest or weed control at 250 ppm ([4]; Zymoseptoria tritici, 250 ppm, read-out: Test A disease control rating): 100%; pest or weed control at 250 ppm ([5]; Phakopsora pachyrhizi, 216 h, 250 ppm, read-out: Test D disease control rating): 59%; pest or weed control at 250 ppm ([6]; Blumeria graminis, 250 ppm, read-out: Test C disease control rating): 56%
COc1ccc(Cl)c(-c2cn(C)c(=O)cc2-c2cccc(F)c2F)c1 [Compound 65]	95	0	96	8	0	0	
Cc1ccsc1-c1cn(C)c(=O)c(Cl)c1-c1ccc(F)cc1Cl [Compound 63]	80	0	88	84	0	0	
COc1cc(OC)cc(-c2cn(C)c(=O)c(Cl)c2-c2ccc(F)cc2Cl)c1 [Compound 3, 3-chloro-4-(2-chloro-4-fluorophenyl)-5-(3,5-dimethoxyphenyl)-1-methyl-2(11)-pyridinone]	100	100	100	99	65	0	
C=CCn1cc(-c2cc(OC)ccc2Cl)c(-c2ccc(F)cc2Cl)c(Cl)c1=O [Compound 77]	74	0	91	40	0	0	
COc1cccc(-c2cn(C)c(=O)c(Cl)c2-c2ccc(F)cc2F)c1 [Compound 8]							Test B disease control rating ([1]; 250 ppm): 100%; Test F disease control rating ([2]; 250 ppm): 99%; Test E disease control rating ([3]; 250 ppm): 99%; Test A disease control rating ([4]; 250 ppm): 100%; Test D disease control rating ([5]; 250 ppm): 81%; Test C disease control rating ([6]; 250 ppm): 98%
C#CCOn1cc(-c2cc(OC)cc(OC)c2Cl)c(-c2ccc(F)cc2Cl)c(Cl)c1=O [Compound 36, 3-chloro-5-(2-chloro-3,5-dimethoxyphenyl)-4-(2-chloro-4-fluorophenyl)-1-(2-propynyloxy)-2(1H)-pyridinone]							pest or weed control at 50 ppm [1, 7]: 99%; pest or weed control at 50 ppm [2, 8]: 0%; pest or weed control at 50 ppm [3, 9]: 96%; pest or weed control at 50 ppm [4, 10]: 98%; pest or weed control at 50 ppm [5, 11]: 96%; pest or weed control at 50 ppm [6, 12]: 0%
Cn1cc(-c2cc(F)ccc2Cl)c(-c2ccc(F)cc2Cl)cc1=O [Compound 34]	68	0	98	100	59	48	
Cn1cc(-c2ccccc2Cl)c(-c2ccc(F)cc2Cl)c(Cl)c1=O [Compound 15]	100	0	88	100	0	69	
COc1ccc(Cl)c(-c2cn(C)c(=O)c(Cl)c2-c2ccccc2Br)c1 [Compound 67]		33	91	99	73	56	
